Test results published in patent US20040102454A1, “Phenylahistin and the phenylahistin analogs, a new class of anti-tumor compounds” (priority 1998, published 2004).
In brackets after ≈: the same amount, converted by molar mass. Where a name gives a salt, the structure may show the parent alone. Read-outs that look alike come from different tables or passages of the source.

How the values were obtained:
[1] = test system: HT-29 human colon tumor; assay: HT-29 Human Colon Tumor Xenograft Model; format: in vivo, nude mice; conditions: CPT-11 100 ip qwx3 alone; study 2139
Experimental: Animals used were (exceptions are indicated for individual studies): female nude mice (nu/nu) between 5 and 6 weeks of age (˜20 g, Harlan); group size was 9-10 mice per group unless otherwise indicated. The selected novel compound was administered as monotherapy via the intraperitoneal (i.p.) route at the doses indicated for the individual study; for the combination studies the selected reference chemotherapy agents were injected 15-30 min prior to the compound. Vehicles used in these studies were: 12.5% DMSO, 5% Cremaphor and 82.5% peanut oil for the selected novel compounds; (1:3) Polysorbate 80:13% ethanol for taxotere; […] Saline dilutions are used to achieve the injection concentrations used for the reference compounds. Animals were implanted subcutaneously (s.c.) by trocar with fragments of HT-29 tumors harvested from s.c. growing tumors in nude mice hosts. […] CPT-11 was administered intraperitoneally on days 1, 8 and 15 (qw×3).

[2] = test system: P388 cells; assay: P388 proliferation, Alamar Blue assay; format: cell-based, murine
Experimental: For this example, the Alamar Blue™ assay was performed as follows. Exponentially growing P388 cells were seeded into 96-well tissue culture plates (5×10^3 cells/100 μl/well) and cultured in RPMI 1640 medium supplemented with 10% fetal bovine serum for 16 h. Compounds (DMSO solution) were then added to each well at various concentrations, and the cells were cultured for an additional 48 h. Living cells were counted using Alamar Blue™ (BioSource International, Camarillo, Calif.), according to the method of Ahmed, S. A. et al., J. Immunol. Methods, 170, 211 (1994).

[3] = test system: Microtubule protein from bovine brain; assay: Microtubule protein polymerization assay (turbidity); format: biochemical
Experimental: Microtubule protein was prepared from bovine brain tissue by two cycles of assembly and disassembly according to the method of Tiwari, S. C. et al. Anal. Biochem, (1993), 215, 96-103. Tubulin was purified from microtubule protein by phosphocellulose chromatography see Algaier, J. et al. Biochim. Biophys. Acta, (1988), 954, 235-43, and tubulin purity was evaluated by polyacrylamide gel electrophoresis, as in Laemmli, U.K., Nature, (1970), […], 680-85. […] Protein concentrations were determined using the Coomassie® Protein Assay Reagent from Pierce (Rockford, Ill.).
Polymerization of microtubule protein was monitored by an increase in turbidity at 37° C. in microtubule assembly buffer containing 100 mM MES, 0.5 mM MgCl2, 1 mM EGTA and 1 mM GTP. See Johnson, K. A. et al., J. Mol. Biol., (1977), 117, 1-31. Polymerization of purified tubulin was measured using the same method except the microtubule assembly buffer contained 4 M glycerol. See Lee, J. C. et al., Biochemistry, (1975), 14, 5183-87. Microtubule protein and tubulin polymerization was initiated by a temperature shift from 0° C. to 37° C. and turbidity was measured on a DU-20 thermocontrolled spectrophotometer from Beckman (Fullerton, Calif.) at 360 nm. Drugs were dissolved in dimethyl sulfoxide (DMSO), which was used in all experiments at a final concentration of 2% (v/v).
For this example, the microtubule protein polymerization assay was performed as follows. Microtubule protein was prepared from bovine brain tissue by two cycles of assembly and disassembly. Polymerization of microtubule protein was monitored by an increase in turbidity at 37° C. in microtubule assembly buffer containing 100 mM MES, 0.5 mM MgCl2, 1 mM EGTA and 1 mM GTP. The polymerization of microtubule protein was initiated by a temperature shift from 0° C. to 37° C. Turbidity was measured on a thermo-controlled spectrophotometer (Beckman DU-20, Fullerton, Calif.) at 360 nm. Compounds were dissolved in DMSO, which was used in all experiments at a final concentration of 2% (v/v).

[4] = test system: T. mentagrophytes isolate #2; assay: Antifungal susceptibility testing, broth dilution (NCCLS M38-A); format: cell-based, Trichophyton mentagrophytes; conditions: 80% reduction in turbidity
Experimental: (§1) Antifungal susceptibility testing was accomplished according to the methods outlined in the National Committee for Clinical Laboratory Standards, M38-A “Reference Method for Broth Dilution Antifungal Susceptibility Testing of Conidium-Forming Filamentous Fungi; Approved Standard.” This includes testing in RPMI-1640 with glutamine and without bicarbonate, an inoculum size of 0.4-5×10^4, and incubation at 30 or 35° C. for 48 hours. […] Drug concentrations were 0.03-16 μg/ml for the investigational compounds, 0.015-8 μg/ml for itraconazole and griseofulvin.
(§2) The minimum lethal concentration (MLC) was determined by plating […] from the MIC concentration and each concentration above the MIC. […] When a MIC was obtained, a minimum fungicidal concentration (MFC) was determined to assess the fungistatic/fungicidal nature of the compound. […] The compound is scored as fungistatic if the cells are able to resume growth and fungicidal if no regrowth is possible because the compound had killed the organisms.

[5] = test system: T. mentagrophytes isolate #1; assay: as above; format: cell-based, Trichophyton mentagrophytes
Experimental: as §1, §2

[6] = test system: E. floccosum isolate #2; assay: as above; format: cell-based, Epidermophyton floccosum
Experimental: as §1, §2

[7] = test system: E. floccosum isolate #1; assay: as above; format: cell-based, Epidermophyton floccosum; conditions: 80% reduction in turbidity
Experimental: as §1, §2

[8] = test system: T. rubrum isolate #1; assay: as above; format: cell-based, Trichophyton rubrum; conditions: T. rubrum isolate #1; 80% reduction in turbidity
Experimental: as §1, §2

[9] = test system: T. rubrum isolate #2; assay: as above; format: cell-based, Trichophyton rubrum
Experimental: as §1, §2

[10] = test system: C. albicans 90028; assay: as above; format: cell-based, Candida albicans
Experimental: as §1, §2

[11] = test system: C. albicans 10231; assay: as above; format: cell-based, Candida albicans
Experimental: as §1, §2

[12] = test system: C. glabrata; assay: as above; format: cell-based, Candida glabrata
Experimental: as §1, §2

[13] = test system: microtubules in A549 cells; assay: Immunofluorescence staining of microtubules; format: cell-based, human; conditions: 6 hours incubation
Experimental: Immunocytochemical staining was performed using the method described by Yahara, I. et al., Cell (1978) 15, 251-259. A549 cells were cultured on glass coverslips and incubated with the test drug for 6 hours. The cells were then fixed with 3.7% formaldehyde for 30 min, permeabilized with 0.2% Triton X-100 for 5 min, and incubated with a mouse monoclonal antibody against α-tubulin (Calbiochem®, Oncogene Research Products, Cambridge, Mass.), followed by incubation with fluorescein isothiocyanate-conjugated goat anti-mouse IgG from Cosmo Bio Co., (Tokyo, Japan), and the cells were examined under an immunofluorescent microscope.

[14] = test system: MES-SA DX (Taxol Resistant) human uterine sarcoma tumor cell line; assay: Drug resistant cell line pair, cytotoxicity; format: cell-based
Source text: MES-SA (Taxol Sensitive) and MES-SA DX (Taxol Resistant). This cell line expresses elevated mdr-1 mRNA and P-glycoprotein (an extrusion pump mechanism). Pretreatment with cyclosporin-A (CsA) blocks P-glycoprotein and reinstates activity in the resistant cell line for those compounds for which the resistance is due to elevated P-glycoprotein.

[15] = microtubule protein 1.5 mg/ml (Table 4), read-out: IC50 for Microtubule Protein Polymerization
[16] = Mus musculus, P388, means (±SEM) of three experiments (Table 9), read-out: IC50 P388 proliferation
[17] = microtubule protein 1.5 mg/mL (Table 9), read-out: IC50 Microtubule Protein polymerization
[18] = means (±SEM) of three experiments (Table 9), read-out: IC50 P388 proliferation
[19] = Alamar Blue assay (Table 4), read-out: IC50 for P388 Proliferation

Molecule: CCc1c2c(nc3ccc(OC(=O)N4CCC(N5CCCCC5)CC4)cc13)-c1cc3c(c(=O)n1C2)COC(=O)[C@]3(O)CC [CPT-11, irinotecan hydrochloride, reference compound]
- Chemotherapeutic Agent Result TGI % [1]: 32.7%

Molecule: O=C1CNC(=O)C(Cc2ccccc2)N1 [Compound 7, Cyclo-[glycinyl-L-phenylalanine]]
- IC50 ([2]; Mus musculus, P388, Alamar Blue assay (Table 4), read-out: IC50 for P388 Proliferation): > 200 µM
- IC50 [3, 15]: > 200 µM

Molecule: C=CC(C)(C)c1c(/C=C2\NC(=O)[C@H](Cc3ccccc3)NC2=O)ncn1C [Compound 14, (−)-Cyclo-[(N^im-methyl-5-(1,-dimethyl-2-propenyl))dehydrohistidinyl-L-phenylalanine]]
- IC50 [2, 16]: 0.95 µM
- times less active than (−)-phenylahistin [3]: about 5 times
- IC50 [3, 17]: 100 µM

Molecule: C=CC(C)(C)c1c(C=C2C(=O)N(C)[C@@H](Cc3ccccc3)C(=O)N2C)ncn1C [Compound 15, (−)-Cyclo-N, N′-dimethyl-[(N^im-methyl-5-(1,1-dimethyl-2-propenyl))dehydro-histidinyl-L-phenylalanine]]
- IC50 [2, 18]: 160 µM
- IC50 [3, 17]: > 200 µM

Molecule: O=C1NC(Cc2ccccc2)C(=O)NC1=Cc1c[nH]cn1 [Compound 19, Cyclo-[dehydrohistidinyl-L-phenylalanine]]
- IC50 [2, 16]: > 200 µM
- inhibition percentage at 200 μM, microtubule protein polymerization [3]: 11%
- IC50 [3, 17]: > 200 µM

Molecule: Cc1[nH]cnc1C=C1NC(=O)[C@H](Cc2ccccc2)NC1=O [Compound 20, Cyclo-[(5-methyl)dehydrohistidinyl-L-phenylalanine]]
- IC50 [2, 18]: 15 µM
- inhibition percentage at 200 μM, microtubule protein polymerization [3]: 9%
- IC50 [3, 17]: > 200 µM

Molecule: O=C1N[C@@H](Cc2cnc[nH]2)C(=O)N[C@H]1Cc1ccccc1 [Cyclo-His-Phe, reference compound]
- IC50 [2, 19]: > 200 µM
- IC50 [2, 18]: > 200 µM
- IC50 [3, 17]: > 200 µM
- IC50 [3, 15]: > 200 µM

Molecule: C=CC(C)(C)c1[nH]cnc1/C=C1\NC(=O)[C@H](Cc2ccccc2)NC1=O [NPI2350]
- MIC [4]: >16 µg/mL
- MFC [5]: >16 µg/mL
- MIC ([5]; 80% reduction in turbidity): 16 µg/mL (≈ 45.7 µM)
- MICs and MFCs [6]: >16 µg/mL
- MIC [7]: >16 µg/mL
- MIC [8]: >16 µg/mL
- MFC [9]: >16 µg/mL
- MIC ([9]; 80% reduction in turbidity): 0.16 µg/mL (≈ 0.457 µM)

Molecule: C[C@@H]1[C@H](O)[C@@H](C)/C=C/C=C/C=C/C=C/C=C/C=C/C=C/[C@H](O[C@@H]2O[C@H](C)[C@@H](O)[C@H](N)[C@@H]2O)C[C@@H]2O[C@](O)(C[C@@H](O)C[C@@H](O)[C@H](O)CC[C@@H](O)C[C@@H](O)CC(=O)O[C@H]1C)C[C@H](O)[C@H]2C(=O)O [amphotericin B]
- MFC ([10]; C. albicans 90028): 0.5 µg/mL (≈ 0.541 µM)
- MIC ([10]; C. albicans 90028, 80% reduction in turbidity): 0.5 µg/mL (≈ 0.541 µM)
- MFC ([11]; C. albicans 10231): 0.5 µg/mL (≈ 0.541 µM)
- MIC ([11]; C. albicans 10231, 80% reduction in turbidity): 0.5 µg/mL (≈ 0.541 µM)
- MFC ([12]; C. glabrata): 1 µg/mL (≈ 1.08 µM)
- MIC ([12]; C. glabrata, 80% reduction in turbidity): 1 µg/mL (≈ 1.08 µM)

Molecule: CCCCNC(=O)n1c(NC(=O)OC)nc2ccccc21 [benomyl]
- MIC ([10]; Candida albicans, C. albicans 90028, 80% reduction in turbidity, read-out: MIC): 64 µg/mL (≈ 220 µM)
- MFC ([10]; Candida albicans, C. albicans 90028, read-out: MFC): > 512 µg/mL
- MIC ([11]; Candida albicans, C. albicans 10231, 80% reduction in turbidity, read-out: MIC): 64 µg/mL (≈ 220 µM)
- MFC ([11]; Candida albicans, C. albicans 10231, read-out: MFC): > 512 µg/mL
- MIC ([12]; Nakaseomyces glabratus, C. glabrata, 80% reduction in turbidity, read-out: MIC): 64 µg/mL (≈ 220 µM)
- MFC ([12]; Nakaseomyces glabratus, C. glabrata, read-out: MFC): > 512 µg/mL

Molecule: COc1cc2c(c(OC)c1OC)-c1ccc(OC)c(=O)cc1[C@@H](NC(C)=O)CC2 [colchicine]
- MIC ([10]; Candida albicans, 90028): > 128 µg/mL
- MIC ([11]; Candida albicans, 10231): > 128 µg/mL
- microtubule structure (anti α-tubulin staining) [13]: staining profile similar to that of (−)-PLH-treated cells
- MIC ([12]; Nakaseomyces glabratus): > 128 µg/mL

Molecule: COc1cccc2c1C(=O)c1c(O)c3c(c(O)c1C2=O)C[C@@](O)(C(=O)CO)C[C@@H]3O[C@H]1C[C@H](N)[C@H](O)[C@H](C)O1 [doxorubicin, reference compound]
- reduced susceptibility of the MES-SA DX cell line [14]: 34 fold

Molecule: COc1cc([C@@H]2c3cc4c(cc3[C@@H](O[C@@H]3O[C@@H]5CO[C@@H](C)O[C@H]5[C@H](O)[C@H]3O)[C@H]3COC(=O)[C@H]23)OCO4)cc(OC)c1O [etoposide, reference compound]
- reduced susceptibility of the MES-SA DX cell line [14]: 60 fold

Molecule: (+)-Cyclo-[5-(1,1-dimethylpropyl)dehydrohistidinyl-L-phenylalanine] [Compound 4]
- IC50 [2, 19]: 19 µM
- IC50 [2, 18]: 19 µM
- inhibition percentage at 200 μM, microtubule protein polymerization [3]: 12%
- IC50 [3, 17]: > 200 µM
- IC50 [3, 15]: > 200 µM

Molecule: (+)-Cyclo-[5-(1,1-dimethylpropyl)histidinyl-L-phenylalanine] [Compound 6]
- IC50 [2, 19]: > 200 µM
- IC50 [2, 18]: > 200 µM
- IC50 [3, 17]: > 200 µM
- IC50 [3, 15]: > 200 µM

Molecule: (−)-Cyclo-[5-(1,1-dimethylpropyl)dehydrohistidinyl-L-phenylalanine] [Compound 3]
- IC50 [2, 19]: 0.23 µM
- IC50 [2, 18]: 0.23 µM
- IC50 [3, 17]: 30 µM
- IC50 [3, 15]: 30 µM

Molecule: (−)-Cyclo-[5-(1,1-dimethylpropyl)histidinyl-L-phenylalanine] [Compound 5]
- IC50 [2, 19]: > 200 µM
- IC50 [2, 18]: > 200 µM
- IC50 [3, 17]: > 200 µM
- IC50 [3, 15]: > 200 µM
